In brackets after ≈: the same amount, converted by molar mass.

The subject of data set [1] is Mus musculus. As to the kind of experiment: Anti-inflammatory activity in B10.RII mouse model of mouse IL-23 mini circle induced psoriasiform dermatitis assessed as decrease in ear thickness at 100 mg/kg,po BID for 5 days by caliper analysis. The class given is functional. The arrangement: scale not given: the % may be the effect or the level left. The conditions noted are these: time 5 day.

The target of data set [2] is Tyrosine-protein kinase JAK1 (Homo sapiens, UniProt P23458). As to the kind of experiment: Inhibition of JAK1 in human TF-1 cells assessed as reduction in IL-6 induced STAT3 phosphorylation at Tyr705 residue preincubated for 30 mins followed by IL-6 stimulation and measured after 30 mins by AlphaScreen assay. Type of data set: cell-based.
A short description of data set [3]: Oral bioavailability in dog at 1 mg/kg. The following applies: in vivo. Type of data set: ADME, organism-based, Canis lupus familiaris.
For data set [4], the system named is Mus musculus. As to the kind of experiment: Anti-inflammatory activity in B10.RII mouse model of mouse IL-23 mini circle induced psoriasiform dermatitis assessed as decrease in ear thickness at 100 mg/kg,po QD for 5 days by caliper analysis. On the set-up: scale not given: the % may be the effect or the level left. The conditions noted are these: time 5 day. Type of data set: functional.

Data set [5] in a line: AUC (0 to infinity) in cynomolgus monkey at 1 mg/kg,po. The arrangement: dose 1 mg/kg, route po. The class given is ADME, organism-based, Macaca fascicularis. The conditions noted are these: in vivo.
The subject of data set [6] is Mus musculus. As to the kind of experiment: Anti-inflammatory activity in po dosed B10.RII mouse model of mouse IL-23 mini circle induced psoriasiform dermatitis assessed as decrease in ear thickness measured at 101 to 10000 ng/ml of whole blood drug exposure level measured after 30 mins. The conditions noted are these: 0.5 h. Type of data set: functional, organism-based.

Data set [7] has as its target Non-receptor tyrosine-protein kinase TYK2 (Homo sapiens, UniProt P29597). The data set can be described thus: Inhibition of TYK2 in human T-blast cells assessed as IL-12 induced STAT4 phosphorylation at Tyr694 residue preincubated for 30 mins followed by IL-12 stimulation and measured after 20 mins by AlphaScreen assay. The class given is cell-based, T-blast cell.
Data set [8] is described as follows: In vivo inhibition of TYK2 in IL-12/IL-18 induced C57/B6 mouse model assessed as reduction in serum IFN-gamma production at 10 mg/kg,po pretreated for 30 mins prior to IL-12/IL-18 challenge and measured after 4 hrs by MSD assay. The following applies: C57/B6, 4.5 h, time 270 min. The class given is functional.
Data set [9] can be described thus: In vivo inhibition of TYK2 in IL-12/IL-18 induced C57/B6 mouse model assessed as reduction in serum IFN-gamma production at 100 mg/kg,po pretreated for 30 mins prior to IL-12/IL-18 challenge and measured after 4 hrs by MSD assay. Type of data set: functional. The conditions noted are these: C57/B6, 4.5 h, time 270 min.
Data set [10] is described as follows: Unbound clearance in dog blood at 1 mg/kg, iv. The class given is ADME, organism-based, Canis lupus familiaris. The following applies: in vivo.
In data set [11] the target is Non-receptor tyrosine-protein kinase TYK2 (Mus musculus, UniProt Q9R117). As to the kind of experiment: Inhibition of TYK2 in C57/B6 mouse whole blood assessed as decrease in STAT4 phosphorylation preincubated for 30 mins followed by mouse IL-12p70 stimulation and measured after 20 mins by flow cytometry. The class given is tissue-based. Background: A flow cytometer gives signals particle by particle.

Data set [12] can be described thus: In vivo inhibition of TYK2 in IL-12/IL-18 induced C57/B6 mouse model assessed as reduction in serum IFN-gamma production at 600 mg/kg,po pretreated for 30 mins prior to IL-12/IL-18 challenge and measured after 4 hrs by MSD assay. The conditions noted are these: C57/B6, 4.5 h, time 270 min. Type of data set: functional.
Data set [13] in a line: Metabolic stability in dog hepatocytes assessed as intrinsic clearance for unbound fraction of drug. Type of data set: ADME, cell-based, Canis lupus familiaris, Hepatocyte.

Tyrosine-protein kinase JAK1, sequence (P23458 whole entry): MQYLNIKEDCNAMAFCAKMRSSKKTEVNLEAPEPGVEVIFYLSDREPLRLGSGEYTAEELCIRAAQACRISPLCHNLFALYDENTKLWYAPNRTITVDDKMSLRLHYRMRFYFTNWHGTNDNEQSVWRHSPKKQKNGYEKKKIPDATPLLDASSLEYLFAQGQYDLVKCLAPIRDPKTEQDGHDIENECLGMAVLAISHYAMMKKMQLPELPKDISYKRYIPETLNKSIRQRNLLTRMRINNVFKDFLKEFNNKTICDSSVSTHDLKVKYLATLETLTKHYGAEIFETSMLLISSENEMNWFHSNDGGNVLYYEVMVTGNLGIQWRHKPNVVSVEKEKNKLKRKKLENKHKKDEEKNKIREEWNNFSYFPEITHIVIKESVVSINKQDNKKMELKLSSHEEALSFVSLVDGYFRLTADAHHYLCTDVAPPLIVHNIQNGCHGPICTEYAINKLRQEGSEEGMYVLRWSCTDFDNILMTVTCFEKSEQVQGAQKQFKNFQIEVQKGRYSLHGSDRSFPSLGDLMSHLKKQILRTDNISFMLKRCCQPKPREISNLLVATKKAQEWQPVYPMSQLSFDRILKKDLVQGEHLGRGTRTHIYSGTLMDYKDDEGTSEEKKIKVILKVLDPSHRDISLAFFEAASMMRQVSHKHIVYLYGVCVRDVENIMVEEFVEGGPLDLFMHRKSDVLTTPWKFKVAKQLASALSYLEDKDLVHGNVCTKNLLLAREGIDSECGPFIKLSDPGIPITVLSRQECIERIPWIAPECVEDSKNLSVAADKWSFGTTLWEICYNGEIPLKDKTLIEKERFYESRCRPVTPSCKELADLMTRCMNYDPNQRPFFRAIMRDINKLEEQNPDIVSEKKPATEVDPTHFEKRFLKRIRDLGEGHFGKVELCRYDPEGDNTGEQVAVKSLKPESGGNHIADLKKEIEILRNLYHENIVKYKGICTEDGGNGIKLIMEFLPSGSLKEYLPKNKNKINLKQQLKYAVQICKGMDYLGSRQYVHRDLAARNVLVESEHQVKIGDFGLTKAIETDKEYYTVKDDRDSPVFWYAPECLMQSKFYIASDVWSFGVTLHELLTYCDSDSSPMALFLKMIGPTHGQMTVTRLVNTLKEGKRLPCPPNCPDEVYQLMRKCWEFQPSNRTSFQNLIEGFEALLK
Non-receptor tyrosine-protein kinase TYK2 (Homo sapiens, UniProt P29597), sequence (P29597 whole entry): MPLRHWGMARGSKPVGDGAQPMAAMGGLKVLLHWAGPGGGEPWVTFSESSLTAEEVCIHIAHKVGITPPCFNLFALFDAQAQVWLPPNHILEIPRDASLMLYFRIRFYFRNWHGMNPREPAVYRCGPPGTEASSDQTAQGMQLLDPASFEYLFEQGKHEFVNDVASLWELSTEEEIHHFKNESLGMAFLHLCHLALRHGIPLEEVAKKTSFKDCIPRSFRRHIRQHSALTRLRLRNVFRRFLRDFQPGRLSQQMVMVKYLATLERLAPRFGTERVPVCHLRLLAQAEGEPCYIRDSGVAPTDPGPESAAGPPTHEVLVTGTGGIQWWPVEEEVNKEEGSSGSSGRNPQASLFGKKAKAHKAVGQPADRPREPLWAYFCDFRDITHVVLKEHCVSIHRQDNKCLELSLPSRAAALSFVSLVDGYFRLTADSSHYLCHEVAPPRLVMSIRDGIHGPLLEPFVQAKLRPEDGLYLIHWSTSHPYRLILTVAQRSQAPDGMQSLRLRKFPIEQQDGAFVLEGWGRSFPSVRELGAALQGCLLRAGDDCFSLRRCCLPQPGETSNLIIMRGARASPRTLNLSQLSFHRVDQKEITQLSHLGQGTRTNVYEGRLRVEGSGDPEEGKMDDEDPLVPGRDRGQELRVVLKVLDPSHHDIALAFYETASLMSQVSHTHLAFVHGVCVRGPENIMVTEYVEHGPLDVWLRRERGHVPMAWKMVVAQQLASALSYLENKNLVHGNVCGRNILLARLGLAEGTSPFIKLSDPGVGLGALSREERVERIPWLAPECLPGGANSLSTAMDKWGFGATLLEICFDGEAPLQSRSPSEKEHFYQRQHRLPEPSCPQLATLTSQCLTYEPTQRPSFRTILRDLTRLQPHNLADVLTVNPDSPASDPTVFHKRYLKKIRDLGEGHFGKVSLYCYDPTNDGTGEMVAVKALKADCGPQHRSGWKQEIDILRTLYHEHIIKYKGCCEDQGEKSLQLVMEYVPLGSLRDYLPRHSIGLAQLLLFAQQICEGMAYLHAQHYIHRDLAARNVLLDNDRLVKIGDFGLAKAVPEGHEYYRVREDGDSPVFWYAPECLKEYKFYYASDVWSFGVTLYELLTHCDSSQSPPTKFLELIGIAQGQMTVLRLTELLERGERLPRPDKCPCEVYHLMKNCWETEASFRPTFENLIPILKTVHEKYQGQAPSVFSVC
Non-receptor tyrosine-protein kinase TYK2 (Mus musculus, UniProt Q9R117), sequence (Q9R117 whole entry): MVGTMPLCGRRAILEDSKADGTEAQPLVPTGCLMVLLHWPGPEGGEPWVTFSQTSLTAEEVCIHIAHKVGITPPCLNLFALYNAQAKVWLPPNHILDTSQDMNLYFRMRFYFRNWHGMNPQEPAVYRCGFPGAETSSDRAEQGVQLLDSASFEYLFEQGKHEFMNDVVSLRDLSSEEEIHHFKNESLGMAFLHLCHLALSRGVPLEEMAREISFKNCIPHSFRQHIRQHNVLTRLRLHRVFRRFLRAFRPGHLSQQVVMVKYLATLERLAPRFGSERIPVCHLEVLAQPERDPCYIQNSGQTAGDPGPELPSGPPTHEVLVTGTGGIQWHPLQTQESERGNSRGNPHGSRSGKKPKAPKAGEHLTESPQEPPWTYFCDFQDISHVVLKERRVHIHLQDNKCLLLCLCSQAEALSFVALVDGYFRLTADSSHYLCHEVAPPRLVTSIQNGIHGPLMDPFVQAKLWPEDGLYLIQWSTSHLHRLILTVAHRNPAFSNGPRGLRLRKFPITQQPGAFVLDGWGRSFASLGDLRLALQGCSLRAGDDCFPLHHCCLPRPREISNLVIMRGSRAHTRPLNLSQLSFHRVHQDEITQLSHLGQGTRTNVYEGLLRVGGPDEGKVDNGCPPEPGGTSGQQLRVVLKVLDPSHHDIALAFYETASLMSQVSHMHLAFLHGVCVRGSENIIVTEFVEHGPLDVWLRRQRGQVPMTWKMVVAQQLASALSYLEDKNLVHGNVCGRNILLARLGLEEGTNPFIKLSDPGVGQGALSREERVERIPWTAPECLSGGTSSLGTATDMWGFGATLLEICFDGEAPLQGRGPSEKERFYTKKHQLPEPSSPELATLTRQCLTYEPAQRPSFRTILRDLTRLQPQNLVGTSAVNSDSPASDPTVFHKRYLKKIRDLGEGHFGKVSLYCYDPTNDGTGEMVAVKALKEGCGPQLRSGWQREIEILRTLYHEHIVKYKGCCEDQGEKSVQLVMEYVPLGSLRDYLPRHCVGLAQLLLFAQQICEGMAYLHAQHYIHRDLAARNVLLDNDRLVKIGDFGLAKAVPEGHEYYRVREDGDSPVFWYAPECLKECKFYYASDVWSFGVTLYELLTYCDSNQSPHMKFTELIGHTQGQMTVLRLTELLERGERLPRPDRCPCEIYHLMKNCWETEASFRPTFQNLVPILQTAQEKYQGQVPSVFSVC

A word on the EC50: it is the concentration at which the effect is half-maximal. As a reminder, the bioavailability is dose-corrected exposure relative to a reference, in per cent. By AUC(0-inf) is commonly meant total exposure, with the tail of the curve extrapolated. As usually defined, the inhibition in vivo is how much of the control response was suppressed. As for `COCc1cc(-c2cn(C3COC3)c3cnc(NC(C)=O)cc23)nc([C@]2(OC)CCOC2)c1`, the Activity with Mus musculus [1] was 61%; in the data set on Mus musculus [4], 58%. In addition, the EC50 is more than 20 µM in data set [2], 0.3 µg/mL (≈ 0.663 µM) with Mus musculus [6], 0.195 µM in data set [7] and 1.4 µM in data set [11]. Besides, the bioavailability in [3] came to 88%. This compound registered an AUC(0-inf) in data set [5] of 80 ng·h/mL. In addition, in data set [8], the inhibition in vivo at 10 mg/kg is 24%. In addition, in [9], the inhibition in vivo at 100 mg/kg stood at 84%. Moreover, the CL free in data set [10] is 7.67 mL/min/kg; in [13], 21.7 mL/min/kg. For the same compound, the inhibition in vivo at 600 mg/kg in data set [12] was 99%.

The record behind these values is ChEMBL document CHEMBL5370619, “Targeting the Tyrosine Kinase 2 (TYK2) Pseudokinase Domain: Discovery of the Selective TYK2 Inhibitor ABBV-712” (J Med Chem, 2023).
